According to patent US20060199214A1, “Incorporation of modified nucleotides by archaeon DNA polymerases and related methods” (priority 1999, published 2006):

Key:
[1] = target: herpes virus type 2 (HSV-2) DNA polymerase (Human herpesvirus 2, UniProt P89453); conditions: Reid, et al.; cited from earlier work
[2] = target: T1, 9° N™ (exo-)/A485L DNA polymerase (Thermococcus sp., UniProt Q56366, A485L/D141A/E143A); type: biochemical, Thermococcus sp. 9° N-7
T1 construct: made in house
Protocol: (§1) The 2X cocktail was split in half and 9° N™ (exo-)/A485L DNA polymerase or Thermo Sequenase™ was added to a final concentration of 0.04 U/μl. […] Reactions were thermal cycled as follows: • 94° C. 5 minutes • 25 cycles at: • 94° C. 30 seconds • 55° C. 30 seconds • 72° C. 30 seconds • 72° C. 7 minutes

[3] = target: human cytomegalovirus (HCMV) DNA polymerase (Human cytomegalovirus, UniProt P08546); conditions: Reid, et al.; cited from earlier work
Sequence of human cytomegalovirus (HCMV) DNA polymerase (P08546 whole entry): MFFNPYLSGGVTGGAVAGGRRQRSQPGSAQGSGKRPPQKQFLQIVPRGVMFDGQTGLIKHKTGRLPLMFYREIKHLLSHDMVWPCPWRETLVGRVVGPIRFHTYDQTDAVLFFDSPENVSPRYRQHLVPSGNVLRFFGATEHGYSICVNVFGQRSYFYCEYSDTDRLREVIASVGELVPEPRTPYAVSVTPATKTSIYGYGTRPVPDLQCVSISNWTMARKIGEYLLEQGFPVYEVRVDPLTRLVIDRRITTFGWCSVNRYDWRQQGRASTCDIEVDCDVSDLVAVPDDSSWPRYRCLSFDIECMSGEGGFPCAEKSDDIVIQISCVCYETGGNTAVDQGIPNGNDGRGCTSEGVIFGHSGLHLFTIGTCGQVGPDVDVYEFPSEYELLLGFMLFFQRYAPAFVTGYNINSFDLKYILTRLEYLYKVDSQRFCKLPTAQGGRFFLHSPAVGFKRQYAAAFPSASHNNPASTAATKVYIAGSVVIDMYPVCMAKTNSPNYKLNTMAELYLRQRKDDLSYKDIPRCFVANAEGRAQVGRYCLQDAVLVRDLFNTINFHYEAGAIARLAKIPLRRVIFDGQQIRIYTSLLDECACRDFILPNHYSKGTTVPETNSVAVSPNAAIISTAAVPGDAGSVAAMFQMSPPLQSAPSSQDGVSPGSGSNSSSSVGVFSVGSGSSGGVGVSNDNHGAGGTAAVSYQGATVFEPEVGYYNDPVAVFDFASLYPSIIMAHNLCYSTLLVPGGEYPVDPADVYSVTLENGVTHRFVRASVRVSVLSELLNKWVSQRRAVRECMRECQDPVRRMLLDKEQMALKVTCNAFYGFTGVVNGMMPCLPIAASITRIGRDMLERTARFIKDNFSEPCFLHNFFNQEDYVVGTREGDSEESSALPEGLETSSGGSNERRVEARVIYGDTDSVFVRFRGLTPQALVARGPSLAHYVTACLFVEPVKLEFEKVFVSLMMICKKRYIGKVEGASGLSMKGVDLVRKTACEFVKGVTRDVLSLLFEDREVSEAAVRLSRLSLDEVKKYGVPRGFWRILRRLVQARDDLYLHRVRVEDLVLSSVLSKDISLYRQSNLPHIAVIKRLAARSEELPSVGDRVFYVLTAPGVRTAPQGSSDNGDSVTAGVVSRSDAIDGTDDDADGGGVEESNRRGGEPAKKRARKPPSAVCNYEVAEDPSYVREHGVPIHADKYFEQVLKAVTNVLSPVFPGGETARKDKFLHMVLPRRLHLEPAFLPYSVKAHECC

[4] = target: human DNA polymerase alpha (Homo sapiens, UniProt P09884); conditions: Reid, et al.; cited from earlier work
[5] = test system: Thermo Sequenase™ DNA polymerase; experiment: Titration assay of chain terminator incorporation by Thermo Sequenase; type: biochemical; conditions: FIG. 9
Protocol: Samples were then heated at 72° C. for 3 minutes and separated on a QuickPoint DNA sequencing gel (NOVEX, San Diego, Calif.) run at 1200 volts. The gel was fixed by soaking in 10% acetic acid/10% ethanol, dried, and polymerization products visualized by autoradiography.
In a related experiment dye-acyclo-CTP incorporation by the analogous […] variant was evaluated.
as §1

[6] = target: T2, Vent® (exo-)/A488L DNA polymerase (Thermococcus litoralis, UniProt P30317, A488L/D141A/DEL1082-1471/DEL495-1032/E143A); type: biochemical; conditions: Vent (exo-)/A488L vs Vent (exo-); FIG. 6
T2 construct: made in house
T2 sequence (P30317 other isoform, or with tags, fused parts or gaps D141A/E143A/A488L/DEL495-1032/DEL1082-1471): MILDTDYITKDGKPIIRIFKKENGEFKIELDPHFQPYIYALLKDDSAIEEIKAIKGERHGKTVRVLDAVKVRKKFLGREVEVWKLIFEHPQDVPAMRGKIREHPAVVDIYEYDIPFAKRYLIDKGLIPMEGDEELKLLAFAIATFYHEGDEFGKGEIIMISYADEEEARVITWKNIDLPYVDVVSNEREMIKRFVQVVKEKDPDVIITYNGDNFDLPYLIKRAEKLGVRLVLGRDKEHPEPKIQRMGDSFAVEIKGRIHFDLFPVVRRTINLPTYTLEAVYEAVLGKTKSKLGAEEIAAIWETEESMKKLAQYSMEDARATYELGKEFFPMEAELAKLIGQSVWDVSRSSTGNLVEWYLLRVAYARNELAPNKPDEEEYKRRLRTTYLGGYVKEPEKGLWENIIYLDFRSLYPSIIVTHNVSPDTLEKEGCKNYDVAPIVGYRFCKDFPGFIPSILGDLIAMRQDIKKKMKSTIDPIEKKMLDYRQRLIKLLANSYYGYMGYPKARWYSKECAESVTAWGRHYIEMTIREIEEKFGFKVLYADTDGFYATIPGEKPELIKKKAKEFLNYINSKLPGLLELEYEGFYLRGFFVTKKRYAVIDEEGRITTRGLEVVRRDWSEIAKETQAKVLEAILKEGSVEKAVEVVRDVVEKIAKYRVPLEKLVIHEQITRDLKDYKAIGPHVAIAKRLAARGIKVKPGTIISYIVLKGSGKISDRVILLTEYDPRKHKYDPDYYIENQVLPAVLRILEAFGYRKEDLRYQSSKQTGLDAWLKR

T1 sequence (Q56366 whole entry D141A/E143A/A485L): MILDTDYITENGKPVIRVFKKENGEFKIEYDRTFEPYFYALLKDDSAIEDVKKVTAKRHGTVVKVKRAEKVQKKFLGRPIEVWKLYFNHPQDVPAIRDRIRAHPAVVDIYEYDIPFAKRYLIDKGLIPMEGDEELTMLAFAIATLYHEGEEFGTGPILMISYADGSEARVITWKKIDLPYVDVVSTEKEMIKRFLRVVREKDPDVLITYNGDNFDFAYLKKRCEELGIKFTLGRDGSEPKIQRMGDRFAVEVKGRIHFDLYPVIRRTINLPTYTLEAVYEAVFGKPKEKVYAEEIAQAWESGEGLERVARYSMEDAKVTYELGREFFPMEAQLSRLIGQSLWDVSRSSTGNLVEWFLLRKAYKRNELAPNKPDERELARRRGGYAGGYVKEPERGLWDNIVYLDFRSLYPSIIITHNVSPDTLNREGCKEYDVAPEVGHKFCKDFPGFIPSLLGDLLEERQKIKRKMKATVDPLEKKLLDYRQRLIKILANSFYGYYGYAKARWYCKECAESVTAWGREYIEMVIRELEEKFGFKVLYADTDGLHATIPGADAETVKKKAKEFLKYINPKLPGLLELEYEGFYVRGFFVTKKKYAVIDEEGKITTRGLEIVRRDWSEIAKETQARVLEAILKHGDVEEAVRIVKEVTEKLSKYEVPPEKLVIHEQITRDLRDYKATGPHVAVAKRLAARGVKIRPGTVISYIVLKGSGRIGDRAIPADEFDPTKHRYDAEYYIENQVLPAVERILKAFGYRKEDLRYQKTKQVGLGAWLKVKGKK
Sequence of herpes virus type 2 (HSV-2) DNA polymerase (P89453 whole entry): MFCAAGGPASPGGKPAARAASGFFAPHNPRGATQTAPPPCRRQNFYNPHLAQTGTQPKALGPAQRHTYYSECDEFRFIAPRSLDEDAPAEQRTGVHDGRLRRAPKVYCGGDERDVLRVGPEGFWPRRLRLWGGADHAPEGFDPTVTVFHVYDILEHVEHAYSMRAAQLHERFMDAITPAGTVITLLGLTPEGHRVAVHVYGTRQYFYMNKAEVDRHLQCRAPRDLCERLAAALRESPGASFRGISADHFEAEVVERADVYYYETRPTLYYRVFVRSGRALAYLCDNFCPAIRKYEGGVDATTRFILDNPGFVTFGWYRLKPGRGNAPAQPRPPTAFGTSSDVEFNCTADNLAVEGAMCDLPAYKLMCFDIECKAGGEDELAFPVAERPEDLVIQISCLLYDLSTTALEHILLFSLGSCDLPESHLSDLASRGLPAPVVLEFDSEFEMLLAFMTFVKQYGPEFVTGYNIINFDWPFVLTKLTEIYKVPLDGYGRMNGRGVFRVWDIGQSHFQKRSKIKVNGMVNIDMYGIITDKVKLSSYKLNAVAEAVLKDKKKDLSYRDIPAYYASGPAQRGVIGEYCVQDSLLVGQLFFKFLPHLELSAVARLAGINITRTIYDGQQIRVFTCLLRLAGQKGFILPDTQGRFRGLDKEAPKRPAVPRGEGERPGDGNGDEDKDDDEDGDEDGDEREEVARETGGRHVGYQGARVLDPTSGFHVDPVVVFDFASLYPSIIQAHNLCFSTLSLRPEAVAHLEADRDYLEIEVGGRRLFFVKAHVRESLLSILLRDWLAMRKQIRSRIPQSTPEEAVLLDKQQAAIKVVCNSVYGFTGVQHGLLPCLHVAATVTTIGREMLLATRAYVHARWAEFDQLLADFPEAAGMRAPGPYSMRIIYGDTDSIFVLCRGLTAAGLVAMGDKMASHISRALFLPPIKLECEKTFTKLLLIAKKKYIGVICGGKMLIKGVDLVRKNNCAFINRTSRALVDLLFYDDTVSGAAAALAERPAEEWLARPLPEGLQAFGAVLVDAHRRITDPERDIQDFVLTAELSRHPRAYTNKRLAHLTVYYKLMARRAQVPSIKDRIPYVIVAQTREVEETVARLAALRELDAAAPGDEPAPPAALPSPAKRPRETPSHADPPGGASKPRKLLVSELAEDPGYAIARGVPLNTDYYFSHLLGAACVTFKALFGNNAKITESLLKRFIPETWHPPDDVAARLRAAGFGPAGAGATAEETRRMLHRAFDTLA

Question: For Nc1nc2c(ncn2COCCOP(=O)(O)OP(=O)(O)OP(=O)(O)O)c(=O)[nH]1 [acyclo-GTP], which “Preference for insertion, acyclo-GTP versus ddGTP” value [1] is on record?
Answer: The value was “preference for insertion of acyclo-GTP over ddGTP”.

Question: What about the “Preference for acyclo-GTP over ddGTP” value ([2]; 9°N (exo-)/A485L, FIG. 9) of the same compound?
Answer: Its value is “approximately 9 fold”.

Question: What about the “Preference for insertion, acyclo-GTP versus ddGTP” value [3] of the same compound?
Answer: The value was “preference for insertion of acyclo-GTP over ddGTP”.

Question: Which “Preference for insertion, ddGTP versus acyclo-GTP” value [4] does the source give for Nc1nc2c(ncn2[C@H]2CC[C@@H](COP(=O)(O)OP(=O)(O)OP(=O)(O)O)O2)c(=O)[nH]1 [ddGTP] here?
Answer: Its value is “strong preference”.

Question: And the “Preference for ddGTP over acyclo-GTP” value [5]?
Answer: The value was roughly 27 fold.

Question: With Nc1ccn([C@H]2CC[C@@H](COP(=O)(O)OP(=O)(O)OP(=O)(O)O)O2)c(=O)n1 [ddCTP] as the compound, how does the “Enhancement of incorporation, variant compared to parental enzyme” value ([2]; 9°N (exo-)/A485L vs 9°N (exo-), FIG. 6) read?
Answer: The value was “about 10 fold”.

Question: What about the “Enhancement of incorporation, variant compared to parental enzyme” value [6] of the same compound?
Answer: Its value is “about 10 fold”.
